Results on 7 compounds are retold here after patent publication US9499729B2, “Compositions and methods containing fluorine substituted olefins” (HONEYWELL INTERNATIONAL INC., priority 2006, dated 2016).

A short description of series [1]: Solubility of Jasmone in the fluoroolefin, sealed glass tube, frozen and thawed. It counts as physicochemical. Here is the method: The compositions of the present invention also provide advantage when used as part of, and in particular as a carrier for, flavor formulations and fragrance formulations. […] 1.73 grams of R-1234ze were added to the glass tube. The tube was then frozen and sealed. […] The solution contained 20 wt. % Jasome and 80 wt. % R-1234ze, thus establishing favorable use a carrier for flavor formulations and fragrances. It also establishes its potential as an extractant of biologically active compounds (such as Biomass) and fragrances, including from plant matter. In certain embodiments, it may be preferred to use the present composition for in extraction applications with the present fluid in its supercritical state. This an other applications of involving use of the present compositions in the supercritical or near supercritical state are described hereinafter.
Approximately 0.39 grams of Jasmone were put into a heavy walled glass tube and approximately 1.73 grams of transHFC-1233zd were added to the glass tube. The tube was then frozen and sealed. […] The solution contained about 20 wt. % Jasome and about 80 wt. % transHFCO-1233zd.
Approximately 0.39 grams of Jasmone are put into a heavy walled glass tube and approximately 1.73 grams of cisHFC-1233zd are added to the glass tube. The tube is then frozen and sealed. […] The solution contains about 20 wt. % Jasmone and about 80 wt. % cisHFCO-1233zd.

A short description of series [2]: Dissolution of silicone lubricant in the solvent. To be noted: silicone oil added to a concentration of about 10 weight percent. It counts as physicochemical. Here is the method: A compound of Formula II, namely, transHFCO-1233zd was transferred to a glass container. A silicon lubricant, particularly a high-viscosity (12,500 cP) silicone oil, was added to the transHFCO-1233zd solvent to a concentration of about 10 weight percent.
A compound of Formula II, namely, cisHFCO-1233zd is transferred to a glass container. A silicon lubricant, particularly a high-viscosity (12,500 cP) silicone oil is added to the cisHFCO-1233zd solvent to a concentration of about 10 weight percent.
A combination of transHFCO-1233zd and trans-1,2-dichloroethylene are prepared in transHFCO-1233zd:trans-1,2-dichloroethylene weight ratios of 25:75 and 50:50. Each combination is then added to a glass container. A silicon lubricant, particularly a high-viscosity (12,500 cP) silicone oil is added to each solvent to a concentration of about 10 weight percent.
A combination of cisHFCO-1233zd and trans-1,2-dichloroethylene are prepared in cisHFCO-1233zd:trans-1,2-dichloroethylene weight ratios of 25:75 and 50:50. Each combination is then added to a glass container. A silicon lubricant, particularly a high-viscosity (12,500 cP) silicone oil is added to each solvent to a concentration of about 10 weight percent.

A short description of series [3]: Dissolution of synthetic PAG lubricant in the solvent. It counts as physicochemical. The settings on record: PAG lubricant ND-8; combinations in approximate weight ratios: /methanol 98:2, /pentane 96:4, /methanol/pentane 92:2:6. As for the experimental part:
A synthetic lubricant, specifically polyalkyleneglycol (PAG) lubricant, and more specifically a PAG consisting essentially of 2 or more oxypropylene groups and having a viscosity of from about 10 to about 200 centistokes at about 37° C. (sold under the trade designation ND-8 by Idemitsu Kosan) are added to a vial containing transHFCO-1233zd. […] The properties of the synthetic lubricant ND-8 are identified below in Table 11 below.
A synthetic lubricant, specifically polyalkyleneglycol (PAG) lubricant, and more specifically a PAG consisting essentially of 2 or more oxypropylene groups and having a viscosity of from about 10 to about 200 centistokes at about 37° C. (sold under the trade designation ND-8 by Idemitsu Kosan) are added to a vial containing cisHFCO-1233zd.
The PAG lubricant described in Example 45 above is added to vials containing, respectively, transHFCO-1233zd/methanol in an approximate 98:2 weight ratio, transHFCO-1233zd/pentane in an approximate 96:4 weight ration and transHFCO-1233zd/methanol/pentane in an approximate 92:2:6 weight ratio.
The PAG lubricant described in Example 45 above is added to vials containing, respectively, cisHFCO-1233zd/methanol in an approximate 98:2 weight ratio, cisHFCO-1233zd/pentane in an approximate 96:4 weight ration and cisHFCO-1233zd/methanol/pentane in an approximate 92:2:6 weight ratio.

Series [4] in a line: Solubility of Artemisinin in the extractant, solvent added to weighed sample until dissolved. It is filed as physicochemical. From the text:
A medicament, particularly a plant-derived Artemisinin which is an anti-malarial drug, is extracted from the Artemisia annua plant. A sample of Artemisinin was weighed into a vial.

Series [5] is described as follows: Toxicity as stated by applicants (no method given).
Series [6] can be described thus: Miscibility with refrigeration lubricants, sealed glass tubes, visual observation of liquid phases. It is filed as physicochemical. As for the experimental part: The miscibility of HFO-1225ye and HFO-1234ze with various refrigeration lubricants is tested. […] For each refrigerant/oil combination, three compositions are tested, namely 5, 20 and 50 weight percent of lubricant, with the balance of each being the compound of the present invention being tested
The lubricant compositions are placed in heavy-walled glass tubes. The tubes are evacuated, the refrigerant compound in accordance with the present invention is added, and the tubes are then sealed. The tubes are then put into an air bath environmental chamber, the temperature of which is varied from about −50° C. to 70° C. At roughly 10° C. intervals, visual observations of the tube contents are made for the existence of one or more liquid phases.

Series [7] is described as follows: Flammability / flammability limit (ASTM E-681). It counts as physicochemical. Here is the method: Flammability is another important property for many applications. That is, it is considered either important or essential in many applications, including particularly in heat transfer and blowing agent applications, to use compositions which are of low flammability or are non-flammable. Thus, it is frequently beneficial to use in such compositions compounds which are nonflammable. As used herein, the term “nonflammable” refers to compounds or compositions which are determined to be nonflammable as determined in accordance with ASTM standard E-681, dated 2002, which is incorporated herein by reference. Unfortunately, many HFC's which might otherwise be desirable for used in refrigerant or foam blowing agent compositions are not nonflammable. For example, the fluoroalkane difluoroethane (HFC-152a) and the fluoroalkene 1,1,1-trifluorpropene (HFO-1243zf) are each flammable and therefore not viable for use in many applications.

Series [8] is described as follows: Compatibility/stability of refrigerant with lubricating oil in contact with aluminum, copper and steel coupons, sealed tube, one week, visual observation. It is filed as physicochemical. The settings on record: one week at 350° C., liquid contents turn black. As for the experimental part:
The compatibility of the refrigerant compounds and compositions of the present invention with PAG lubricating oils while in contact with metals used in refrigeration and air conditioning systems is tested at 350° C., representing conditions much more severe than are found in many refrigeration and air conditioning applications.
Aluminum, copper and steel coupons are added to heavy walled glass tubes. Two grams of oil are added to the tubes. The tubes are then evacuated and one gram of refrigerant is added. The tubes are put into an oven at 350° F. for one week and visual observations are made. At the end of the exposure period, the tubes are removed.
This procedure was done for the following combinations of oil and the compound of the present invention: • a) HFC-1234ze and GM Goodwrench PAG oil • b) HFC1243 zf and GM Goodwrench oil PAG oil • c) HFC-1234ze and MOPAR-56 PAG oil • d) HFC-1243 zf and MOPAR-56 PAG oil • e) HFC-1225 ye and MOPAR-56 PAG oil.
Aluminum, copper and steel coupons are added to a heavy walled glass tube with mineral oil and CFC-12 and heated for one week at 350° C., as in Example 3. At the end of the exposure period, the tube is removed and visual observations are made.

As to `CC/C=C\CC1=C(C)CCC1=O` [Jasmone], in series [1] (0.39 grams Jasmone and 1.73 grams R-1234ze: 20 wt. % Jasmone, 80 wt. % R-1234ze), the “liquid phases of mixture with R-1234ze upon thawing” value was “one liquid phase”. Further, in series [1] (solvent cisHFCO-1233zd, one liquid phase), the “solubility in cisHFCO-1233zd (soluble up to)” value was “about 20 weight percent”. Moreover, the “solubility in transHFCO-1233zd (soluble up to)” value in series [1] (solvent transHFCO-1233zd, one liquid phase) was “about 20 weight percent”.
With `FC(F)(F)/C=C\Cl` [transHFCO-1233zd, 1,1,1-trifluo,3-chlororopropene], the “solution formed with silicone oil” value in series [2] is listed as “homogeneous, single-phase solution”. Moreover, in series [3], the “concentration of PAG at which a homogeneous, single-phase solution is formed” value was “greater than 10 % by weight”.
Take `C[C@@H]1CC[C@H]2[C@@H](C)C(=O)O[C@@H]3O[C@@]4(C)CC[C@@H]1[C@]32OO4` [Artemisinin]: the “solubility in cisHFCO-1233zd (soluble up to)” value in series [4] (solvent cisHFCO-1233zd) was “approximately 3 weight percent”. For the same compound, the “solubility in transHFCO-1233zd (soluble up to)” value in series [4] (solvent transHFCO-1233zd) is “approximately 3 weight percent”.
As to `FC=C(F)C(F)(F)F` [HFO-1225ye, 1,1,1,2,3 pentafluoropropene], the “degree of toxicity in comparison to CF3CH═CF2 (HFO-1225zc)” value in series [5] (pentafluoropropene with a hydrogen substituent on the terminal unsaturated carbon) is “relatively low degree of toxicity”. Further, the “miscibility with polyalkylene glycol” value in series [6] (50 weight percent concentration of the PAG in refrigerant, at 60°) is given as “miscible”; in series [6] (at 70° C., from 5 to 50 weight percent lubricant in refrigerant) it was “miscible”; in series [6] (from −20 to 50° C.), “partially miscible”; in series [6] (temperature range of −50° C. to −30° C.), “immiscible”.
On to `FC=CC(F)(F)F` [HFO-1234ze, 1,1,1,3-tetrafluoropropene], for which, in series [5], the toxicity result is reported as “relatively low toxicity”. In series [7], the flammability entry is given as “relatively low flammability”.
In the case of `FC(F)(F)C=CCl` [HCFO-1233zd, 1,1,1-trifluo-3,chloro-propene], the toxicity entry in series [5] was “relatively low toxicity”. Also, the flammability result in series [7] was “relatively low flammability”.
Consider `FC(F)(Cl)Cl` [CFC-12, Dichlorodifluoromethane], for which, in series [8], the “visual observation of tube contents (stability with mineral oil and metals)” value is listed as “severe decomposition”.
